Results from PubChem BioAssay AID330 (DTP/NCI, 2004).
Several values for one entry are separate records, joined by “and”; a condition that tells them apart may be missing. Identical values can stand only once. Inconclusive results and toxic doses are left out. Peptide text beside a SMILES is read from it.

Tested on: P388 leukemia ip, CD2F1 mice, survival T/C
Test: NCI In Vivo Anticancer Drug Screen. Data for tumor model P388 Leukemia (intraperitoneal) in CD2F1 (CDF1) mice
Settings: endpoint: median survival time, higher = longer survival
Procedure, shortened: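 Mice carrying the transplanted tumor received test compound or vehicle. Survival was recorded in each group, and the value is the treated-group measurement divided by that of the vehicle-treated control group.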

[1] = dose: 25.0 mg/kg/injection, schedule: Q01DX009 (ip), vehicle: distilled water + Tween-80
[2] = dose: 50.0 mg/kg/injection, schedule: Q01DX005 (ip), vehicle: saline with Tween-80
[3] = dose: 100.0 mg/kg/injection, schedule: Q01DX005 (ip), vehicle: saline with Tween-80
[4] = dose: 200.0 mg/kg/injection, schedule: Q01DX005 (ip), vehicle: saline with Tween-80
[5] = dose: 100.0 mg/kg/injection, schedule: Q01DX009 (ip), vehicle: saline with Tween-80
[6] = dose: 200.0 mg/kg/injection, schedule: Q01DX009 (ip), vehicle: saline with Tween-80
[7] = dose: 50.0 mg/kg/injection, schedule: Q01DX005 (ip), vehicle: saline
[8] = dose: 100.0 mg/kg/injection, schedule: Q01DX005 (ip), vehicle: saline
[9] = dose: 50.0 mg/kg/injection, schedule: Q01DX005 (ip), vehicle: Klucel (hydroxypropylcellulose) (HPC)
[10] = dose: 100.0 mg/kg/injection, schedule: Q01DX005 (ip), vehicle: Klucel (hydroxypropylcellulose) (HPC)
[11] = dose: 50.0 mg/kg/injection, schedule: Q01DX009 (ip), vehicle: saline with Tween-80
[12] = dose: 60.0 mg/kg/injection, schedule: Q01DX005 (ip), vehicle: saline with Tween-80
[13] = dose: 120.0 mg/kg/injection, schedule: Q01DX005 (ip), vehicle: saline with Tween-80
[14] = dose: 200.0 mg/kg/injection, schedule: Q01DX005 (ip), vehicle: Klucel (hydroxypropylcellulose) (HPC)
[15] = dose: 100.0 mg/kg/injection, schedule: Q01DX001 (ip), vehicle: saline with Tween-80
[16] = dose: 60.0 mg/kg/injection, schedule: Q01DX005 (ip), vehicle: saline
[17] = dose: 120.0 mg/kg/injection, schedule: Q01DX005 (ip), vehicle: saline

## Cn1c2ccccc2c2ccc3c(c21)C(=O)C=CC3=O
[1]
  T/C: 120 % of control

## O=[Se](O)O
dose: 0.78 mg/kg/injection, schedule: Q01DX005 (ip), vehicle: water
  T/C: 106 % of control and 110 % of control
dose: 1.56 mg/kg/injection, schedule: Q01DX005 (ip), vehicle: water
  T/C: 114 % of control and 119 % of control
dose: 3.12 mg/kg/injection, schedule: Q01DX005 (ip), vehicle: water
  T/C: 114 % of control
dose: 6.25 mg/kg/injection, schedule: Q01DX005 (ip), vehicle: water
  T/C: 117 % of control

## Cc1ccc(C)c(C(O)(c2cc(C)ccc2C)C2(O)CCCCC2)c1
[2]
  T/C: 106 % of control
[3]
  T/C: 103 % of control
[4]
  T/C: 97 % of control

## CC(=O)Nc1cc(C)ccc1O
[5]
  T/C: 95 % of control
[6]
  T/C: 100 % of control
dose: 400.0 mg/kg/injection, schedule: Q01DX009 (ip), vehicle: saline with Tween-80
  T/C: 95 % of control

## CN(C)CC[CH2][Sn]([CH3])([Br])[Br]
dose: 1.56 mg/kg/injection, schedule: Q01DX009 (ip), vehicle: saline
  T/C: 100 % of control and 101 % of control

## C/C(=N\O)C(O)c1ccccc1 (centres undefined)
dose: 100.0 mg/kg/injection, schedule: Q01DX009 (ip), vehicle: saline
  T/C: 88 % of control
dose: 200.0 mg/kg/injection, schedule: Q01DX009 (ip), vehicle: saline
  T/C: 93 % of control
dose: 400.0 mg/kg/injection, schedule: Q01DX009 (ip), vehicle: saline
  T/C: 100 % of control

## NCCC[Se]CC(N)C(=O)O (centres undefined)
dose: 12.5 mg/kg/injection, schedule: Q01DX005 (ip), vehicle: saline
  T/C: 100 % of control
dose: 25.0 mg/kg/injection, schedule: Q01DX005 (ip), vehicle: saline
  T/C: 102 % of control
dose: 25.0 mg/kg/injection, schedule: Q04DX003 (ip), vehicle: saline
  T/C: 95 % of control
[7]
  T/C: 104 % of control
dose: 50.0 mg/kg/injection, schedule: Q04DX003 (ip), vehicle: saline
  T/C: 111 % of control
[8]
  T/C: 102 % of control
dose: 100.0 mg/kg/injection, schedule: Q04DX003 (ip), vehicle: saline
  T/C: 110 % of control and 119 % of control

## ClC1=CC(Cl)=C2N=C(N3CCCC3)N=C3N=C(N4CCCC4)N=C1N32
dose: 50.0 mg/kg/injection, schedule: Q01DX005 (ip), vehicle: Klucel + Tween-80
  T/C: 93 % of control
dose: 100.0 mg/kg/injection, schedule: Q01DX005 (ip), vehicle: Klucel + Tween-80
  T/C: 93 % of control
dose: 200.0 mg/kg/injection, schedule: Q01DX005 (ip), vehicle: Klucel + Tween-80
  T/C: 90 % of control

## CC(C)=CCc1c(C)cc2cc3c(c(O)c2c1O)C(O)=CC(=O)C3(CC=C(C)C)CC=C(CO)CO (centres undefined)
dose: 25.0 mg/kg/injection, schedule: Q01DX005 (ip), vehicle: Klucel (hydroxypropylcellulose) (HPC)
  T/C: 97 % of control
[9]
  T/C: 93 % of control
[10]
  T/C: 94 % of control

## Fc1ccc(CSC(=S)Nc2cccc(C(F)(F)F)c2)cc1
dose: 50.0 mg/kg/injection, schedule: Q01DX009 (ip), vehicle: suspension in saline
  T/C: 97 % of control
dose: 100.0 mg/kg/injection, schedule: Q01DX009 (ip), vehicle: suspension in saline
  T/C: 90 % of control

## Cc1cc2cc3cc(C)c(N)cc3nc2cc1N
dose: 6.25 mg/kg/injection, schedule: Q01DX009 (ip), vehicle: saline with Tween-80
  T/C: 120 % of control and 219 % of control
dose: 12.5 mg/kg/injection, schedule: Q01DX009 (ip), vehicle: saline
  T/C: 113 % of control
dose: 25.0 mg/kg/injection, schedule: Q01DX009 (ip), vehicle: saline
  T/C: 110 % of control
[11]
  T/C: 97 % of control
dose: 50.0 mg/kg/injection, schedule: Q01DX009 (ip), vehicle: saline
  T/C: 114 % of control

## COC(=O)c1cc(O)c(O)c(O)c1
[2]
  T/C: 105 % of control
[3]
  T/C: 108 % of control
[4]
  T/C: 119 % of control

## COc1ccc(-c2coc3cc(OC4OC(COC5OC(CO)C(O)C(O)C5O)C(O)C(O)C4O)cc(O)c3c2=O)cc1 (centres undefined)
dose: 25.0 mg/kg/injection, schedule: Q01DX009 (ip), vehicle: saline with Tween-80
  T/C: 101 % of control
[11]
  T/C: 98 % of control
[5]
  T/C: 93 % of control

## CC(CC/C=C/CO)C1CC(OS(=O)(=O)O)C2(O)C1(C)CCC1C3CCC(O)C(O)C3C(O)CC12O (centres undefined)
dose: 5.0 mg/kg/injection, schedule: Q01DX005 (ip), vehicle: Klucel (hydroxypropylcellulose) (HPC)
  T/C: 100 % of control
dose: 10.0 mg/kg/injection, schedule: Q01DX005 (ip), vehicle: Klucel (hydroxypropylcellulose) (HPC)
  T/C: 106 % of control
dose: 20.0 mg/kg/injection, schedule: Q01DX005 (ip), vehicle: Klucel (hydroxypropylcellulose) (HPC)
  T/C: 98 % of control
dose: 40.0 mg/kg/injection, schedule: Q01DX005 (ip), vehicle: Klucel (hydroxypropylcellulose) (HPC)
  T/C: 95 % of control

## c1ccc(-c2c[s+]c(-c3ccccc3)s2)cc1
dose: 6.25 mg/kg/injection, schedule: Q01DX009 (ip), vehicle: distilled water + Tween-80
  T/C: 117 % of control
dose: 12.5 mg/kg/injection, schedule: Q01DX009 (ip), vehicle: distilled water + Tween-80
  T/C: 100 % of control
[1]
  T/C: 90 % of control
dose: 50.0 mg/kg/injection, schedule: Q01DX009 (ip), vehicle: distilled water + Tween-80
  T/C: 99 % of control
dose: 100.0 mg/kg/injection, schedule: Q01DX009 (ip), vehicle: distilled water + Tween-80
  T/C: 97 % of control

## COc1ccc(OC(=O)c2ccccc2)c2c1C(=O)C=CC2=O
dose: 1.56 mg/kg/injection, schedule: Q01DX005 (ip), vehicle: saline with Tween-80
  T/C: 116 % of control
dose: 3.13 mg/kg/injection, schedule: Q01DX005 (ip), vehicle: saline with Tween-80
  T/C: 111 % of control
dose: 6.25 mg/kg/injection, schedule: Q01DX005 (ip), vehicle: saline with Tween-80
  T/C: 111 % of control and 116 % of control

## COc1ccc(/C=C/C(=O)C(C)(C)CN(C)CCN(C)C)cc1
[12]
  T/C: 100 % of control
[13]
  T/C: 109 % of control

## COc1cccc2c1CCC(=O)C2C (centres undefined)
[9]
  T/C: 107 % of control
[10]
  T/C: 100 % of control
[14]
  T/C: 104 % of control

## Nc1ccc2c(n1)NCC/C2=N\Nc1ccccc1
[11]
  T/C: 115 % of control
[5]
  T/C: 96 % of control
[6]
  T/C: 100 % of control

## CC(=O)Nc1cc2ccccc2c(Br)n1
[15]
  T/C: 90 % of control
dose: 200.0 mg/kg/injection, schedule: Q01DX001 (ip), vehicle: saline with Tween-80
  T/C: 97 % of control
dose: 400.0 mg/kg/injection, schedule: Q01DX001 (ip), vehicle: saline with Tween-80
  T/C: 97 % of control

## CC(O)C(N)C(=O)NC(C(=O)NC(C(=O)O)C(C)O)C(C)O (stereo not drawn) (H-Thr-Thr-Thr-OH; configuration not given here)
[7]
  T/C: 104 % of control
[8]
  T/C: 92 % of control
dose: 200.0 mg/kg/injection, schedule: Q01DX005 (ip), vehicle: saline
  T/C: 104 % of control

## Cc1cccc(Cl)c1NC(=O)CN(C)CCN1CCCC1
[16]
  T/C: 103 % of control
[17]
  T/C: 110 % of control

## O=C1NC(=O)[C@@]2(CCOc3ccc(F)cc32)N1
[9]
  T/C: 95 % of control
[10]
  T/C: 100 % of control
[14]
  T/C: 100 % of control

## CC1=C(C)C[C@](C)(S(=O)(=O)N2CCOCC2)S(=O)C1 (some centres undefined)
[16]
  T/C: 105 % of control
[17]
  T/C: 98 % of control
dose: 240.0 mg/kg/injection, schedule: Q01DX005 (ip), vehicle: saline
  T/C: 111 % of control

## CS(=N)(=O)CCC(N)C(=O)O (centres undefined) (tested in a mixture with another compound)
dose: 25.0 mg/kg/injection, schedule: Q01DX001 (ip), vehicle: saline
  T/C: 100 % of control
dose: 50.0 mg/kg/injection, schedule: Q01DX001 (ip), vehicle: saline
  T/C: 105 % of control
dose: 100.0 mg/kg/injection, schedule: Q01DX001 (ip), vehicle: saline
  T/C: 105 % of control

## CC1=CC(S)NC(=S)N1 (centres undefined)
[12]
  T/C: 101 % of control
[13]
  T/C: 105 % of control
dose: 240.0 mg/kg/injection, schedule: Q01DX005 (ip), vehicle: saline with Tween-80
  T/C: 102 % of control

## COc1ccc(C(=O)NCCN2CCN3Cc4[nH]c5ccccc5c4CC3C2)cc1 (centres undefined)
dose: 25.0 mg/kg/injection, schedule: Q01DX001 (ip), vehicle: saline with Tween-80
  T/C: 95 % of control
dose: 50.0 mg/kg/injection, schedule: Q01DX001 (ip), vehicle: saline with Tween-80
  T/C: 97 % of control
[15]
  T/C: 95 % of control and 98 % of control
